Earlier results on 1 substance are cited in patent US20230055121A1, “AQUEOUS SUSPENSION COMPOSITION CONTAINING SIROLIMUS OR SALT THEREOF” (SANTEN PHARMACEUTICAL CO., LTD., priority 2019, published 2023).

Consider Sirolimus, for which the Solubility in water entry is recorded as “almost insoluble in water”.
